Data on 79 molecules can be found in article PMC12040169 (PLOS Biology, 2025).

What is called viability is a read-out of living cells in per cent, often relative to untreated cells.

The nature of the data set: in vitro. To be noted: human, hela cells.

As to `COc1cc(CNC(=O)c2cccc(-c3ccc(OC4CCNCC4)cc3)n2)cc(OC)c1OC` [CBK126550T], where the note is “% viability”, the viability at 28.5 h, 10 µM was 87.1%.
Same read-out and setting: the figure for `Cc1nnc(NS(=O)(=O)c2ccc(Br)cc2)s1` [CBK068266] is 101%.
The same measure, in the same setting: the figure for `c1csc(C2NN=C3C4CCN(CC4)C32)c1` (stereo not shown) [CBK021915] is 91.5%; for `O=C(COc1ccc2c(c1)OCO2)Nc1ccccn1` [CBK288148] it is 86.6%; for `Nc1ncnc2[nH]c(SCc3nc4ccccc4n3Cc3ccccc3)nc12` [CBK264148] it is 103%.
Still for that read-out and setting: the figure for `CC(C)CN(Cc1ccc2c(c1)OCO2)C(=O)NCc1ccc2c(c1)OCO2` [CBK159071] is 96.4%; for `Cc1cc2c(cc1C)C(O)CC1(CCN(C(=O)C3CCCC3)CC1)O2` (stereo not shown) [CBK282743] it is 81.5%.
For the molecule `CC(=O)N(C)Cc1cccc(Nc2ncnc3c2cnn3C)c1` [CBK306319], the viability at 28.5 h, 10 µM (% viability) was 95.3%.
For `CC(=O)Nc1ccc(C(=O)Nc2ccc(-c3nc4ccccc4[nH]3)cc2)cc1` [CBK262857], the viability at 28.5 h, 10 µM (% viability) worked out at 84.9%.
As to `Cc1nn(C)c(Cl)c1S(=O)(=O)Nc1ccc2nsnc2c1` [CBK062222], the viability at 28.5 h, 10 µM (% viability) worked out at 69.6%.
In the case of `O=C(CC(CN1CCN(CCO)CC1)C(=O)O)Nc1ccccc1F` (stereo not shown) [CBK286790], where the note is “% viability”, the viability at 28.5 h, 10 µM came out at 86%.
As for `O=C(CCNc1n[nH]c(=O)[nH]c1=O)N/N=C/c1ccc(C(F)(F)F)cc1` [CBK263518], the viability at 28.5 h, 10 µM (% viability) stood at 87.7%.
The same measure, in the same setting: next, `CCn1c(C)nc2cc(NC(=O)Cn3cc(C(=O)NC4CCCCC4)ccc3=O)ccc21` [CBK286095]: 92.9%; `O=C(NCc1c(Cl)cccc1Cl)N1CCN(c2ccccc2)CC1` [CBK155194]: 98.5%.
Same read-out and setting: next, `CCn1c2cc(C)sc2c2cnn(CC(=O)NC(C)C)c(=O)c21` [CBK284172]: 85.8%; `O=C(CCSc1ccc(Cl)cc1)NCCc1ccccc1` [CBK263800]: 86.4%.
Still for that read-out and setting: next, `O=C(Nc1ccccc1)C(N1CCCCC1)N1CCCCC1` [CBK263425]: 105%.
For `c1ccc2c(c1)n(CCN1CCOCC1)c1nc(C34CC5CC(CC(C5)C3)C4)cn21` [CBK278154C], the viability at 28.5 h, 10 µM (% viability) was 105%.
Turning to `O=C(O)c1cccc(NC(=O)c2ccc(S(=O)(=O)N3CCCCC3)cc2)c1` [CBK265185], under “% viability”, the viability at 28.5 h, 10 µM came to 86.1%.
Still for that read-out and setting: the figure for `Nc1ncc(-c2cccnc2)nc1-c1ccc(C(=O)N2CCOCC2)cc1` [CBK064059] is 93.4%; for `COC(=O)CNC(=O)c1nc(SC)ncc1Cl` [CBK057651] it is 107%.
Same read-out and setting: next, `Cc1cccc(C(=O)N[C@@H](C)Cn2nc3c(cc2=O)CCCC3)c1` [CBK284563]: 89.1%; `OCCCNc1nccnc1-c1ccco1` [CBK037346]: 99.2%.
The same measure, in the same setting: the figure for `Cc1ccc2nc(-c3ccccc3)c(C)c(C(=O)O)c2c1` [CBK270268] is 87.6%; for `CC(=O)NC(NC(=S)Nc1sc2c(c1C(N)=O)CCCC2)C(Cl)(Cl)Cl` (stereo not shown) [CBK261054] it is 101%; for `O=[N+]([O-])c1cccc(/C=C/C=N/c2ccc3c(c2)S(=O)(=O)c2cc(/N=C/C=C/c4cccc([N+](=O)[O-])c4)ccc2-3)c1` [CBK261244] it is 97.6%.
Consider `COCC(=O)NC1CCN(CC2(c3ccc(F)cc3)CCCC2)CC1` [CBK285387], for which the viability at 28.5 h, 10 µM (% viability) stood at 95.5%.
Turning to `CC1SC2(C(=O)Nc3ccccc32)N(c2ccc(Oc3ccccc3)cc2)C1=O` (stereo not shown) [CBK103750], the viability at 28.5 h, 10 µM (% viability) came out at 92.5%.
The same measure, in the same setting: the figure for `Cc1cc(C(=O)N2CCC(C(=O)NC(c3cnccn3)c3ccccc3C)CC2)no1` (stereo not shown) [CBK059810] is 93.6%; for `Cc1cc(C(=O)NCCn2ccnc2C)nc2ccccc12` [CBK281894] it is 101%; for `CCc1nn(CC(=O)N(CC)CC)c(=O)c2cc3oc(C)cc3n12` [CBK283583] it is 99.5%.
On the same count and under the same terms, the figure for `O=C(O)CCC(=O)CCC(=O)c1cccs1` [CBK264807] is 94.2%; for `COc1ccc(Sc2nc3ccccc3nc2N2CCCC2)cc1OC` [CBK093797] it is 101%.
For `COc1ccc(CSCc2n[nH]c(=O)[nH]2)cc1[N+](=O)[O-]` [CBK267425], the viability at 28.5 h, 10 µM (% viability) is 101%.
For the molecule `S=C(Nc1ccc(Nc2ccccc2)cc1)N1CCN(C/C=C/c2ccccc2)CC1` [CBK266149], the viability at 28.5 h, 10 µM (% viability) was found to be 102%.
Take `O=C(O)c1cccc(Sc2nccc(C(F)(F)F)n2)c1` [CBK115957]: the viability at 28.5 h, 10 µM (% viability) was 90.2%.
On the same count and under the same terms, the figure for `CN(C)CCNC(=O)C(=O)Nc1ccc(Cl)cc1` [CBK266965] is 107%; for `c1ccc(OCCOc2nccnc2-c2ccc3c(c2)OCO3)cc1` [CBK106714] it is 96.1%.
Still for that read-out and setting: the figure for `O=C(O)CCCNc1ncnc2c1oc1ccccc12` [CBK287573] is 101%; for `O=S(=O)(N1CCCCCC1)N1CCN(S(=O)(=O)N2CCCCC2)CC1` [CBK269001] it is 114%.
The same measure, in the same setting: next, `CC(=O)Nc1nc(-c2ccccc2C)ccc1C(=O)N(C)C` [CBK106328]: 94.6%; `COc1cccc2c3c([nH]c12)C1(CCN(CCCC#N)CC1)N(C(C)=O)CC3` [CBK039722]: 99.6%.
On to `O=C(Nc1ccccc1C(=O)O)c1cccc(-n2cnnc2)c1` [CBK269769], for which the viability at 28.5 h, 10 µM (% viability) came out at 85.4%.
With `N#C/C(=C\c1ccc(-c2ccc(C(=O)O)cc2)o1)C(=O)NCc1ccco1` [CBK263322], for the setting “% viability”, the viability at 28.5 h, 10 µM is 101%.
On the same count and under the same terms, the figure for `CCCc1nn(CC(=O)NC2CCC2)c(=O)c2cc3ccsc3n12` [CBK284194] is 89.1%; for `Cc1nc(CC(=O)N2[C@H]3CCCCCN(C)[C@@]3(C)C[C@H]2c2ccccc2)cs1` [CBK286104] it is 109%.
On the same count and under the same terms, next, `CC(=O)NC(c1nccs1)C1CCN(C(=O)C2CC2C)CC1` (stereo not shown) [CBK282232]: 101%.
The same measure, in the same setting: next, `CC(C)(CN)CN(Cc1ccc(Cl)cc1Cl)C(=O)NCCc1c[nH]c2ccccc12` [CBK000460C]: 89.4%.
Turning to `CNC(=O)Oc1cccc2cccnc12` [CBK015609], the viability at 28.5 h, 10 µM is 88.5%.
As for `COc1cccc(-c2cnc(N(C)S(C)(=O)=O)c(C(=O)NC3CCCCC3)c2)c1` [CBK106446], where the note is “% viability”, the viability at 28.5 h, 10 µM stood at 109%.
On the same count and under the same terms, the figure for `CCCc1nc(NC(CC)c2nc(C)c(C)s2)c2cnn(C)c2n1` (stereo not shown) [CBK307261] is 89.1%; for `COc1ccc(CN2CCCn3c4c(c5cc(C)ccc53)CCCC42)cc1OCc1ccccc1` (stereo not shown) [CBK262879] it is 96.4%.
Same read-out and setting: next, `Cc1nn(C)c(C)c1NC(=O)CSc1nnc(-c2cccc(Br)c2)n1-c1ccccc1` [CBK267430]: 103%; `Cc1cc(Br)ccc1C(=O)Nc1ccc2cc[nH]c2c1` [CBK160046]: 84.1%.
On the same count and under the same terms, next, `O=[N+]([O-])c1ccc(COc2cccc(/C=N/Nc3nc4ccccc4s3)c2)cc1` [CBK262160]: 87.8%.
Take `CCOC(=O)CN(C)Cc1ccccc1Br` [CBK261891]: under “% viability”, the viability at 28.5 h, 10 µM amounted to 108%.
For `FC(F)(F)c1nc2ccccc2nc1Sc1ccncc1` [CBK093773], the viability at 28.5 h, 10 µM (% viability) was found to be 92.8%.
On to `COc1ccc(-c2n[nH]c(=S)n2CCC(=O)NCc2ccc(CN3CCCCC3)cc2)cc1` [CBK297918], for which the viability at 28.5 h, 10 µM (% viability) amounted to 94.5%.
Still for that read-out and setting: next, `COc1ccc(S(=O)(=O)N(CC(=O)O)c2ccc(Cl)cc2)cc1OC` [CBK267836]: 97.5%; `CN(C)C1CCN(C(=O)c2ccc(-c3cnc(OCC4CCN(C(=O)OC(C)(C)C)CC4)nc3)cc2)C1` (stereo not shown) [CBK169767]: 113%; `Cc1oc(-c2ccccc2)cc1C(=O)Nc1c(F)cc(F)cc1OC1CCNCC1` [CBK050326T]: 89.8%.
With `O=C1NC(=S)NC(=O)C1=Cc1cn(-c2ccccc2)nc1-c1ccc(-c2ccc([N+](=O)[O-])cc2)o1` [CBK263149], the viability at 28.5 h, 10 µM (% viability, bulk resorufin, single well) worked out at 107%.
For the molecule `Nc1nc(OCCN2CCCC2=O)cnc1-c1cc(Cl)cc(Cl)c1` [CBK145199], under “% viability”, the viability at 28.5 h, 10 µM came out at 89.3%.
As for `CCCC(=O)Nc1ccc2c(c1)nc1n2CCN(Cc2ccccc2)C1` [CBK267129], the viability at 28.5 h, 10 µM (% viability) was found to be 105%.
The same measure, in the same setting: next, `O=C(CC1CC1)Nc1snnc1-c1ccc(Cl)cc1` [CBK153239]: 97%; `CCOC(=O)CNC(=O)C1Cc2ccccc2CN1S(=O)(=O)c1cccs1` (stereo not shown) [CBK265575]: 103%; `COc1ccc2nc(NCc3ccccc3)sc2c1` [CBK287485]: 66.8%.
Same read-out and setting: the figure for `O=C(NCCCn1ccnc1)N1CCN(Cc2ccc(Cl)cc2)CC1` [CBK305894] is 101%.
Take `Cc1ccc(S(=O)(=O)NCC(=O)O)cc1[N+](=O)[O-]` [CBK034459]: the viability at 28.5 h, 10 µM (% viability) came out at 114%.
Same read-out and setting: the figure for `COc1ccc(OC)c(NS(=O)(=O)c2ccc(C(=O)O)cc2)c1` [CBK267603] is 106%.
For the molecule `O=C(Nc1ccccc1)N1C[C@@H]2OCC(=O)N(Cc3ccc(F)cc3)[C@@H]2C1` [CBK289683], the viability at 28.5 h, 10 µM (% viability) is 82%.
Still for that read-out and setting: the figure for `Cc1ccc(CCC(=O)N2CCCCC2c2nc3ccccc3[nH]2)o1` (stereo not shown) [CBK282316] is 85.7%; for `CN(C)C(=O)N1CCC2(CC1)CC(=O)N(Cc1ccc(S(C)(=O)=O)cc1)C2=O` [CBK155957] it is 104%.
As to `CN1CCN(CCC(=O)N2CCN(c3ncccn3)CC2)CC1` [CBK144520], the viability at 28.5 h, 10 µM (% viability) stood at 84.5%.
On to `c1ccc(-c2nc3cnccn3c2Nc2ccc3c(c2)OCCO3)cc1` [CBK287857], for which the viability at 28.5 h, 10 µM (% viability) is 94.4%.
The same measure, in the same setting: the figure for `Cn1c(=O)c2c(nc(NCCO)n2CCc2ccccc2)n(C)c1=O` [CBK267497] is 87.8%; for `COc1cccc(NC(=O)CCCC(=O)O)c1` [CBK261324] it is 98.1%; for `CN1CCN(c2ccc(-c3cncc(NCCc4ccccn4)n3)cn2)CC1` [CBK037135] it is 87.2%.
For `CC1=NN(c2ccccc2)C(=O)/C1=C1/C(=O)Nc2c(C)cc(Br)cc21` [CBK263950], under “% viability”, the viability at 28.5 h, 10 µM was found to be 92%.
